According to ChEMBL document CHEMBL3739380, “Discovery of benzothiazoles as antimycobacterial agents: Synthesis, structure-activity relationships and binding studies with Mycobacterium tuberculosis decaprenylphosphoryl-β-D-ribose 2'-oxidase” (Bioorg Med Chem, 2015):

How the values were obtained:
[1] = system: Mycobacterium tuberculosis; assay: Antimycobacterial activity against Mycobacterium tuberculosis H37Rv ATCC 27294 after 5 days by microdilution method; format: functional; settings: H37Rv ATCC 27294, 120 h
[2] = system: Salmonella typhimurium; assay: Genotoxicity in Salmonella typhimurium TA100 at 500 ug/plate by Ames test in presence of S9 fraction; format: toxicity, organism-based; settings: salmonella enterica subsp. enterica serovar typhimurium
[3] = system: Salmonella typhimurium; assay: Genotoxicity in Salmonella typhimurium TA100 at 500 ug/plate by Ames test in absence of S9 fraction; format: toxicity, organism-based; settings: salmonella enterica subsp. enterica serovar typhimurium
[4] = Inhibition of Mycobacterium tuberculosis DprE1 using farnesyl-phosphoryl-beta-D-ribofuranose as substrate preincubated for 30 mins before substrate addition by peroxidase coupled assay

COCc1nc2cc(C(F)(F)F)cc([N+](=O)[O-])c2s1
MIC [1]: > 32 µg/mL | Activity [2]: Non-toxic | Activity [3]: Non-toxic | IC50 [4]: 5.9 µM
